In patent publication US9539303B2, “Treatment of Ras-expressing tumors” (Celgene Corporation, priority 2006, dated 2017):
Values joined by “and” are separate entries in the source; they are usually repeats but may differ in a detail not shown here. Equal entries are not always repeated.

Experiments:
[1] = Animal weight and drug toxicity, PANC-1 study
Text: Model Information—Female nude mice (nu/nu) between 5 and 6 weeks of age weighing approximately 20 grams were obtained from Harlan, Inc. (Madison, Wis.). PANC-1, obtained from the ATCC, is a pancreas tumor cell line originating from a person^(1-2). BxPC-3, obtained from the American Type Culture Collection (ATCC), is a pancreas tumor cell line originating from a person^(3-4). PANC-1 Study: Animals were implanted subcutaneously (SC) by trocar with fragments of PANC-1 harvested from SC growing tumors in nude mice hosts. When tumors grew to approximately 135 cubic millimeters (mm^3) in size (17 days following implantation, animals were pair-matched by tumor size into treatment and control groups; each treatment group contained nine mice. BxPC-3 Study: Animals were implanted subcutaneously (SC) by trocar with fragments of BxPC-3 harvested from SC growing tumors in nude mice hosts. When tumors grew to approximately 85 cubic millimeters (mm^3) in size (19 days following implantation), animals were pair-matched by tumor size into treatment and control groups; each treatment group contained nine mice. Animals in both studies were ear-tagged and followed individually throughout the experiment.
Study Design and Dosing—Initial doses were administered on Day 1 following pair-matching; both experiments were carried out as tumor growth inhibition (TGI) studies. Animals were dosed intravenously (IV) via tail vein with FK228 once every four days for three treatments (Q4Dx3) or by intraperitoneal (IP) injection with gemcitabine once every three days for four treatments (Q3Dx4), either alone or in combination, at the doses listed below (Table 1). To serve as a negative control, FK228 vehicle (2% ethanol, 8% propylene glycol, 90% 0.9% saline) was injected on a Q4Dx3 schedule.
Animal Weights—Individual and group mean weights±SD and percent weight change through Day 25 (PANC-1) or Day 29 (BxPC-3) were recorded twice weekly until study completion beginning Day 1. Final group mean weights±SD and group nadir values are reported; weight data from individual animals experiencing technical or drug-related deaths was censored from final group calculations.
Moribundity/Mortality—Animals were observed twice weekly for general moribundity and daily for mortality. Animal deaths were assessed as drug-related or technical based on factors including gross observation and weight loss; reported animal death information includes type, number, and day of death for each group.

acetylated histone 3 = test: Tissue biomarker immunoblotting of PANC-1 xenograft tumors: acetylated histone 3; assay type: in vivo; conditions: PANC-1 tumors at study completion; FK228 5 mg/kg Q4Dx3, gemcitabine 80 mg/kg Q3Dx4, or both
Experimental: Specimen Collection: […] Tumor xenograft tissue and serum specimens were obtained from in vivo studies performed by the Preclinical Research Laboratory at the completion of the experiments. […] Serum was obtained from whole blood and stored frozen at -70° C. Tissue Biomarkers: Tumor levels of acetylated histone-4, histone-4, […] were quantified by immunoblotting as described. Briefly, frozen tissue was pulverized under liquid nitrogen and homogenized in hypotonic lysis buffer. Small aliquots of the extracts were used for analysis of protein concentration by micro-BCA assay with bovine serum albumin as a protein standard. An equal amount of extracts containing about 20-50 μg protein was electrophoresed in SDS polyacrylamide gels. Proteins were transferred to ImmunoBlot PVDF membrane and were probed with appropriate primary and secondary antibodies. The chemiluminescence signal was captured by autoradiography, quantified by densitometry and expressed as a ratio of actin in each sample lane. For each biomarker, means and standard errors were calculated in each treatment group. […] Following quantitative analysis of biomarker levels in each sample, the results were normalized for b-actin and expressed as percentages of untreated controls. […]

[2] = tested on: Panc-1 human pancreas tumors (oncogenic K-ras); test: Panc-1 mouse xenograft model, tumor growth (Example 1); assay type: in vivo, female nude mice; conditions: Panc-1 xenograft; FK228 IV Q4Dx3 and/or gemcitabine IP Q3Dx4; vs vehicle control
Experimental: In this study, female nude mice were implanted subcutaneously (SC) by trocar with Panc-1 tumor fragments harvested from SC growing tumors in nude mice hosts. […] The day of treatment initiation was specified as Day 1. Vehicle control and FK228 were administered intravenously on a […] schedule (Days 1, 5, and 9). Gemcitabine was administered by an intraperitoneal injection on a […] schedule (Days 1, 4, 7, 10). Tumors were measured by Vernier calipers twice weekly.

With C/C=C1\NC(=O)[C@H]2CSSCC/C=C/[C@H](CC(=O)N[C@H](C(C)C)C(=O)N2)OC(=O)[C@H](C(C)C)NC1=O [FK228, romidepsin] the “Final weight data % change” value ([1]; Day 25, FK228 2.5 mg/kg IV Q4Dx3) was “+8%”, the “Final weight data mean ± SD” value ([1]; Day 25, FK228 2.5 mg/kg IV Q4Dx3, 2.5 mg/kg) was 23±2 G and the “Final weight data % change” value ([1]; Day 25, FK228 5 mg/kg IV Q4Dx3) was “+9%”. The “Final weight data mean ± SD” value ([1]; Day 25, FK228 5 mg/kg IV Q4Dx3, 5 mg/kg) was 25±2 G, the “Weight nadir % change” value ([1]; FK228 2.5 mg/kg IV Q4Dx3) was −9% and the Weight nadir day ([1]; FK228 2.5 mg/kg IV Q4Dx3) was 11. For the same compound, the Drug deaths total ([1]; FK228 2.5 mg/kg IV Q4Dx3, 2.5 mg/kg) was 0/9 and 0, the “Weight nadir % change” value ([1]; FK228 5 mg/kg IV Q4Dx3) was −12% and the Weight nadir day ([1]; FK228 5 mg/kg IV Q4Dx3) was 11. The Drug deaths total ([1]; FK228 5 mg/kg IV Q4Dx3, 5 mg/kg) was 0/9 and 0, the “acetylation of histone 3” value (acetylated histone 3) was “not affected” and the tumor growth inhibition [2] was 26%.
